# Where two headings read alike, the source gives them in different places. Marks after values point to notes of the source that are not given here.
# Legend:
# σ1 receptor [1] = target: T1, σ1 receptor (Cavia porcellus, UniProt Q60492); test: σ1 receptor binding assay with [3H]-(+)-pentazocine; set-up: species or system guinea pig
# T1 construct: five guinea pig brains were homogenized with the Potter; tissue Harlan-Winkelmann, Borchen, Germany; host or cells: guinea pig brain (cortex) membrane homogenate
# σ2 receptor = target: T2, σ2 receptor (Rattus norvegicus, UniProt Q5U3Y7); test: σ2 receptor binding assay with [3H]DTG, σ1 sites masked with (+)-pentazocine; conditions: for inhibition at 1 µM: read-out: Inhibition of radioligand binding (σ2)
# T2 construct: two rat livers were cut into small pieces and homogenized with the Potter; tissue Harlan-Winkelmann, Borchen, Germany; host or cells: rat liver membrane homogenate
# T2 sequence (Q5U3Y7 1-176): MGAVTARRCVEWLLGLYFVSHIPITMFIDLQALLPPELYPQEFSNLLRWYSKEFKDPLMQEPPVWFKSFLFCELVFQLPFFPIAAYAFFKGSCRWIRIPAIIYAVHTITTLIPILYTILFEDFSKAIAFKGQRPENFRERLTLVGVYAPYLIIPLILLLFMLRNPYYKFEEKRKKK
# [2] = target: T3, σ1 receptors in the brain (Mus musculus, UniProt O55242); set-up: method as in PMID 21072511; conditions: 30 min after injection, 18F-labeled tracer; cited from earlier work
# T3 construct: tissue Medizinisch-Experimentelles Zentrum, Universität Leipzig; host or cells: brain of female CD1 mice (in vivo / ex vivo autoradiography)
# [3] = cited from earlier work
# [4] = phosphate buffer, Dulbecco buffer and native mouse plasma over 30 min at 37 °C
# Description: For pharmacological characterization of the radiotracer [^18F]-(R)-20, chemical stability was investigated in vitro in different buffer systems over 2 h at 40 °C: 50 mM phosphate buffer (pH 7.2), phosphate-saline-solution (Dulbecco; pH 7.2) and 0.01 M TRIS-HCl (pH 7.4).
# [5] = target: T3, σ1 receptors in the brain; test: Brain uptake and ex vivo autoradiography under control and haloperidol blocking conditions; assay type: in vivo
# Description: The experimental protocols were approved by the local ethics committee and conducted according to the national and EU regulations for animal research. Female CD1 mice (10–12 weeks old, 33.8 ± 6.2 g) were obtained from the Medizinisch-Experimentelles Zentrum, Universität Leipzig and housed under a 12 h/12 h light/dark cycle with free access to food and water for at least 24 h before experiments. Animals were sacrificed by CO2 asphyxiation after anaesthesia with O2/CO2 mixture.
# The tracer distribution in the brain under control and blocking conditions was determined by ex vivo autoradiography studies. […] Animals were sacrificed at 30 min p.i. Blood was collected by heart puncture, the brain quickly removed and transferred on ice, and all samples were weighed. Radioactivity in brain and plasma samples was counted using an automated γ-counter and expressed as percentage of injected dose per gram (%ID/g). For autoradiography, the brain hemispheres were frozen immediately after isolation in 2-methylbutane (Carl Roth, Karlsruhe, Germany) at −30 °C (>2 min). Serial sagittal slices of 12 µm thickness were cut on a cryostat (Microm, Walldorf, Germany) from approx. midline, +500 µm, +1,000 µm and +1,500 µm. Slices were exposed overnight on an imaging plate (SR 2025, Fuji, Tokyo, Japan), scanned afterwards with a high-resolution phosphorimager (HD-CR 35 Bio, raytest). 2D densitometry of the whole brain was performed with AIDA software (raytest).
# [6] = female, CD1, mouse, in vivo
# [7] = HPLC calibration; cited from earlier work
# σ1 receptor [8] = target: T1, σ1 receptor; conditions: earlier 2-benzofuran tracers, quoted for comparison, no reference printed at the values; cited from earlier work
# [9] = rat liver membranes, [3H]DTG, read-out: Ki ± SEM σ2
# [10] = at a concentration of 1 µM, rat liver membranes, [3H]DTG
# [11] = established PET tracers, quoted for comparison, no reference given
# T1 sequence (Q60492 whole entry): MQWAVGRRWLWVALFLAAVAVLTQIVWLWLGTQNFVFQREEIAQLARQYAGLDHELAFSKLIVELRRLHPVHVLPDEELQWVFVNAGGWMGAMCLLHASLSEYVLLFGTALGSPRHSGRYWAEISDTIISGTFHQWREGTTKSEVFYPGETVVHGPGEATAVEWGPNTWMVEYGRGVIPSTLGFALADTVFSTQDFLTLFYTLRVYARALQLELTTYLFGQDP
# T3 sequence (O55242 whole entry): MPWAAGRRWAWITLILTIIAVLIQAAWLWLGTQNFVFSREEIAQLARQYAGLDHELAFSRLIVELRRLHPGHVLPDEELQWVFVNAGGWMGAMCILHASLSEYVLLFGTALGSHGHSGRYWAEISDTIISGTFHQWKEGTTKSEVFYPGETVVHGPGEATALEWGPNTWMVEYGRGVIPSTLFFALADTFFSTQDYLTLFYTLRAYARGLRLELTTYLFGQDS
compound,measurement,setting,value
O[C@H]1COC2(CCN(Cc3ccccc3)CC2)c2ccccc21,melting point,,55 °C
O[C@@H]1COC2(CCN(Cc3ccccc3)CC2)c2ccccc21,melting point,,53 °C
"CC(C)(C)OC(=O)N1CCC2(CC1)OC[C@H](O)c1ccccc12 [(R)-11, tert-Butyl (R)-4-hydroxy-3,4-dihydrospiro[[2]benzopyran-1,4′-piperidine]-1′-carboxylate]",melting point,,161 °C
same,Ki,"σ1 receptor [1]; guinea pig brain membranes, [3H]-(+)-pentazocine, three independent experiments, read-out: Ki ± SEM σ1",5.2 ± 0.3 nM
same,Selectivity σ1/σ2,σ1 receptor [1]; ratio of σ2 and σ1 Ki values,413
same,Ki,σ2 receptor; [9],2150 nM
"CO[C@H]1COC2(CCN(Cc3ccccc3)CC2)c2ccccc21 [(R)-15, (R)-1′-Benzyl-4-methoxy-3,4-dihydrospiro[[2]benzopyran-1,4′-piperidine]]",Ki,σ1 receptor [1],1.2 ± 0.3 nM
same,Selectivity σ1/σ2,σ1 receptor [1],958
same,eudismic ratio (σ1 affinity),σ1 receptor [1],7
same,Ki,σ2 receptor; [9],1150 nM
"CCO[C@H]1COC2(CCN(Cc3ccccc3)CC2)c2ccccc21 [(R)-16, (R)-1′-Benzyl-4-ethoxy-3,4-dihydrospiro[[2]benzopyran-1,4′-piperidine]]",Ki,σ1 receptor [1],5 ± 1.2 nM
same,Selectivity σ1/σ2,σ1 receptor [1],191
same,Ki,σ2 receptor,954 nM
"CCOC(=O)CO[C@H]1COC2(CCN(Cc3ccccc3)CC2)c2ccccc21 [(R)-18, Ethyl (R)-2-[(1′-benzyl-3,4-dihydrospiro[[2]benzopyran-1,4′-piperidin]-4-yl)oxy]acetate]",Ki,σ1 receptor [1],4 ± 0.8 nM
same,Selectivity σ1/σ2,σ1 receptor [1],138
same,eudismic ratio (σ1 affinity),σ1 receptor [1],29
same,Ki,σ2 receptor,552 nM
"OCCO[C@H]1COC2(CCN(Cc3ccccc3)CC2)c2ccccc21 [(R)-19, (R)-2-[(1′-Benzyl-3,4-dihydrospiro[[2]benzopyran-1,4′-piperidin]-4-yl)oxy]ethanol]",Ki,σ1 receptor [1],55 ± 1 nM
same,Selectivity σ1/σ2,σ1 receptor [1],>15
same,inhibition at 1 µM,σ2 receptor; [10],0%
"FCCO[C@H]1COC2(CCN(Cc3ccccc3)CC2)c2ccccc21 [(R)-20, (R)-1′-Benzyl-4-(2-fluoroethoxy)-3,4-dihydrospiro[[2]benzopyran-1,4′-piperidine]]",Ki,σ1 receptor [1],4.7 ± 0.7 nM
same,Selectivity σ1/σ2,σ1 receptor [1],>210
same,inhibition at 1 µM,σ2 receptor; [10],14%
"CO[C@@H]1COC2(CCN(Cc3ccccc3)CC2)c2ccccc21 [(S)-15, (S)-1′-Benzyl-4-methoxy-3,4-dihydrospiro[[2]benzopyran-1,4′-piperidine]]",Ki,σ1 receptor [1],8.8 ± 1.1 nM
same,Selectivity σ1/σ2,σ1 receptor [1],77
same,Ki,σ2 receptor; [9],676 nM
"CCO[C@@H]1COC2(CCN(Cc3ccccc3)CC2)c2ccccc21 [(S)-16, (S)-1′-Benzyl-4-ethoxy-3,4-dihydrospiro[[2]benzopyran-1,4′-piperidine]]",Ki,σ1 receptor [1],4.2 ± 0.8 nM
same,Selectivity σ1/σ2,σ1 receptor [1],>235
same,inhibition at 1 µM,σ2 receptor,31%
"CCOC(=O)CO[C@@H]1COC2(CCN(Cc3ccccc3)CC2)c2ccccc21 [(S)-18, Ethyl (S)-2-[(1′-benzyl-3,4-dihydro-3,4-dihydrospiro[2-benzopyran-1,4′-piperidin]-4-yl)oxy]acetate]",Ki,σ1 receptor [1],114 nM
same,Selectivity σ1/σ2,σ1 receptor [1],>5
same,inhibition at 1 µM,σ2 receptor,12%
"OCCO[C@@H]1COC2(CCN(Cc3ccccc3)CC2)c2ccccc21 [(S)-19, (S)-2-[(1′-Benzyl-3,4-dihydrospiro[[2]benzopyran-1,4′-piperidin]-4-yl)oxy]ethanol]",Ki,σ1 receptor [1],64 ± 0.9 nM
same,Selectivity σ1/σ2,σ1 receptor [1],>15
same,inhibition at 1 µM,σ2 receptor; [10],0%
"FCCO[C@@H]1COC2(CCN(Cc3ccccc3)CC2)c2ccccc21 [(S)-20, (S)-1′-Benzyl-4-(2-fluoroethoxy)-3,4-dohydrospiro[[2]benzopyran-1,4′-piperidine]]",Ki,σ1 receptor [1],5.9 ± 2.9 nM
same,Selectivity σ1/σ2,σ1 receptor [1],>170
same,inhibition at 1 µM,σ2 receptor; [10],10%
FCCCCC1OC2(CCN(Cc3ccccc3)CC2)c2ccccc21 (stereo not drawn) [Compound 2d],total-to-nonspecific binding ratio,[2],approx. 3
FCCC1OC2(CCN(Cc3ccccc3)CC2)c2ccccc21 (stereo not drawn) [[^18F]2b],parent compound in liver samples,"[3]; mouse, in vivo",69%
same,unchanged parent compound in plasma,"[3]; mouse, in vivo",89%
same,total-to-nonspecific binding ratio,[2],approx. 3
[18F]CCCC1OC2(CCN(Cc3ccccc3)CC2)c2ccccc21 (stereo not drawn) [[^18F]2c],parent compound in liver samples,[3]; [11],65%
same,unchanged parent compound in plasma,[3]; [11],86%
[18F]CCO[C@H]1COC2(CCN(Cc3ccccc3)CC2)c2ccccc21 [[^18F]-(R)-20],defluorination,[4],No defluorination was observed
same,Ki,σ1 receptor [1],4.7 nM
same,mean decrease of radiotracer uptake in slices of the whole brain hemisphere with haloperidol,[5]; 2D densitometry of ex vivo autoradiographs,about 40%
same,total-to-nonspecific binding ratio,"[5]; mouse brain, 30 min p.i.",1.5
same,uptake of radioactivity in the brain,"[5]; mouse, 30 min p.i., blocking conditions, co-application of 1 mg/kg haloperidol",2.24 % ID/g
same,uptake of radioactivity in the brain,"[5]; mouse, 30 min p.i., control conditions",3.4 % ID/g
same,reduction of brain uptake by haloperidol co-application,"[5]; mouse, 30 min p.i., from %ID/g values",34%
same,non-metabolized radiotracer of total radioactivity in urine,[6]; 0.5 h,2-20%
same,unchanged parent radiotracer in liver,[6]; 30 min,~56%
Clc1ccccc1 [chlorobenzene],logD of reference compounds used for calibration,[7],2.8
c1ccc2c(c1)-c1cccc3cccc-2c13 [fluoranthene],logD of reference compounds used for calibration,[7],5.1
FCCC1OC2(CCN(Cc3ccccc3)CC2)c2ccccc21 (stereo not drawn) [fluspidine],Ki,σ1 receptor [8],0.59 nM
c1ccc2ccccc2c1 [naphthalene],logD of reference compounds used for calibration,[7],3.6
"tert-Butyl (S)-4-hydroxy-3,4-dihydrospiro[[2]benzopyran-1,4′-piperidine]-1′-carboxylate [(S)-11]",Selectivity σ1/σ2,σ1 receptor [1],>55
same,Ki,σ1 receptor [1]; read-out: Ki ± SEM σ1,18 ± 5 nM
same,Inhibition of radioligand binding (σ2),σ2 receptor; 1 µM,24% *

# Source: PMC3915196, “Asymmetric Synthesis of Spirocyclic 2-Benzopyrans for Positron Emission Tomography of σ1 Receptors in the Brain” (Pharmaceuticals, 2014)
